According to ChEMBL document CHEMBL4304757, “Synthetic heterocyclic candidates as promising α-glucosidase inhibitors: An overview” (Eur J Med Chem, 2019):

target: T1, Alpha glucosidase (Homo sapiens, UniProt O43451+P10253+P14410+Q2M2H8); test: Inhibition of alpha-glucosidase (unknown origin); assay type: protein assay

Compared with `O=C1NC(=O)/C(=C/c2ccc(-c3nc4ccccc4n3Cc3ccc(Cl)cc3)cc2)S1`, `COc1ccc(NC(=O)Cn2cc(Cn3c(-c4cccc(Cl)c4)nc(-c4ccccc4)c3-c3ccccc3)nn2)cc1` is higher in IC50: 0.54 µM for the first, 15 to 48 µM for the second.

`COc1ccc([C@H](CC(=O)c2ccccc2)c2c[nH]c3ccccc23)cc1` and `Cc1ccc(NC(=O)Cn2cc(Cn3c(-c4cccc(F)c4)nc(-c4ccccc4)c3-c3ccccc3)nn2)c(C)c1` cannot be ordered by IC50: 4.3 to 43 µM for the first, 15 to 48 µM for the second.

For `O=C1Nc2cc(Br)ccc2/C1=N/NC(=O)c1ccccc1O`, the IC50 was 2.2 to 83 µM.

target: T1, Alpha glucosidase; test: Inhibition of alpha-glucosidase (unknown origin) using p-nitrophenyl-alpha-d-glucopyranoside as substrate preincubated for 15 mins followed by substrate addition measured after 30 mins; assay type: protein assay

`O=C(CSc1nnc(-c2ccc(Br)cc2)c(-c2ccc(Br)cc2)n1)Nc1nc(-c2ccc(F)cc2)cs1` and `O=C(CSc1nnc(-c2ccc(F)cc2)c(-c2ccc(F)cc2)n1)Nc1nc(-c2ccc(Br)cc2)cs1` fall in the same range of IC50: 2.8 to 14 µM for the first, 2.8 to 14 µM for the second.

`COc1cc(-c2ccc(F)cc2)ccc1O[C@H](C)Cn1cc(-c2ccc(C(F)(F)F)cc2)nn1` and `COc1cc(-c2ccc(C)cc2)ccc1O[C@H](C)Cn1cc(-c2ccc(C(F)(F)F)cc2)nn1` fall in the same range of IC50: 14 to 218 µM for the first, 14 to 218 µM for the second.

`O=C(CSc1nnc(-c2ccccc2)c(-c2ccccc2)n1)Nc1nc(-c2ccc(Cl)cc2)cs1` and `Cc1ccc(-c2csc(NC(=O)CSc3nnc(-c4ccccc4)c(-c4ccccc4)n3)n2)cc1` fall in the same range of IC50: 2.8 to 14 µM for the first, 2.8 to 14 µM for the second.

`O=C(CSc1nnc(-c2ccccc2)c(-c2ccccc2)n1)Nc1nc(-c2ccccc2)cs1` and `O=C(CSc1nnc(-c2ccccc2)c(-c2ccccc2)n1)Nc1nc(-c2ccc(F)cc2)cs1` fall in the same range of IC50: 2.8 to 14 µM for the first, 2.8 to 14 µM for the second.

`COc1cc(Br)ccc1O[C@H](C)Cn1cc(-c2ccc(F)cc2)nn1` and `COc1cc(Br)ccc1O[C@H](C)Cn1cc(-c2ccc(C(F)(F)F)cc2)nn1` fall in the same range of IC50: 14 to 218 µM for the first, 14 to 218 µM for the second.

`Cc1ccc(-c2csc(N/N=C3\C(=O)Nc4ccccc43)n2)cc1` and `O=C1Nc2ccccc2/C1=N/Nc1nc(-c2ccc(Cl)cc2)cs1` fall in the same range of IC50: 5.3 to 35 µM for the first, 5.3 to 35 µM for the second.

`Cc1ccc2c(c1)C(c1c[nH]c3ccccc13)(c1c[nH]c3ccccc13)C(=O)N2` and `O=C1Nc2ccc(Br)cc2C1(c1c[nH]c2ccccc12)c1c[nH]c2ccccc12` fall in the same range of IC50: 5.9 to 145 µM for the first, 5.9 to 145 µM for the second.

`CCCCn1cc(C2(c3cn(CCCC)c4ccccc34)C(=O)Nc3ccccc32)c2ccccc21` and `CCCn1cc(C2(c3cn(CCC)c4ccccc34)C(=O)Nc3ccccc32)c2ccccc21` fall in the same range of IC50: 5.9 to 145 µM for the first, 5.9 to 145 µM for the second.

`Cc1ccc(C(c2c[nH]c3ccc(C(=O)NNS(=O)(=O)c4ccccc4Br)cc23)c2c[nH]c3ccc(C(=O)NNS(=O)(=O)c4ccccc4Br)cc23)cc1` and `Cc1ccc(C(c2c[nH]c3ccc(C(=O)NNS(=O)(=O)c4ccccc4Cl)cc23)c2c[nH]c3ccc(C(=O)NNS(=O)(=O)c4ccccc4Cl)cc23)cc1` fall in the same range of IC50: 0.1 to 5.1 µM for the first, 0.1 to 5.1 µM for the second.

`Cc1ccc(-c2csc(N/N=C3\C(=O)Nc4ccc(F)cc43)n2)cc1` and `O=C1Nc2ccc(F)cc2/C1=N/Nc1nc(-c2ccc(F)cc2)cs1` fall in the same range of IC50: 5.3 to 35 µM for the first, 5.3 to 35 µM for the second.

`COc1ccc(-c2csc(N/N=C3\C(=O)N(C)c4ccccc43)n2)cc1` and `Cc1ccc(-c2csc(N/N=C3\C(=O)N(C)c4ccccc43)n2)cc1` fall in the same range of IC50: 5.3 to 35 µM for the first, 5.3 to 35 µM for the second.

`O=c1ccc2ccc(OCC(O)CSc3nnc(-c4cccc(F)c4)c(-c4cccc(F)c4)n3)cc2o1` (stereo not given) and `O=c1ccc2ccc(OCC(O)CSc3nnc(-c4ccc(F)cc4)c(-c4ccc(F)cc4)n3)cc2o1` (stereo not given) fall in the same range of IC50: 32 to 148 µM for the first, 32 to 148 µM for the second.

`Cc1ccc(-c2csc(NC(=O)CSc3nnc(-c4ccc(Br)cc4)c(-c4ccc(Br)cc4)n3)n2)cc1` and `O=C(CSc1nnc(-c2ccc(Br)cc2)c(-c2ccc(Br)cc2)n1)Nc1nc(-c2ccc(Cl)cc2)cs1` fall in the same range of IC50: 2.8 to 14 µM for the first, 2.8 to 14 µM for the second.

`O=c1oc2ccccc2cc1OCC(O)CSc1nnc(-c2ccc(F)cc2)c(-c2ccc(F)cc2)n1` (stereo not given) and `O=c1oc2ccccc2cc1OCC(O)CSc1nnc(-c2cccc(Br)c2)c(-c2cccc(Br)c2)n1` (stereo not given) cannot be ordered by IC50: 32 to 148 µM for the first, 32 µM for the second.

`O=C(CSc1nnc(-c2ccc(F)cc2)c(-c2ccc(F)cc2)n1)Nc1nc(-c2ccc(Cl)cc2)cs1` and `O=C(CSc1nnc(-c2ccc(F)cc2)c(-c2ccc(F)cc2)n1)Nc1nc(-c2ccc(F)cc2)cs1` fall in the same range of IC50: 2.8 to 14 µM for the first, 2.8 to 14 µM for the second.

`O=C1Nc2ccccc2C1(c1cn(Cc2ccccc2F)c2ccccc12)c1cn(Cc2ccccc2F)c2ccccc12` and `O=C1Nc2ccccc2C1(c1cn(Cc2ccccc2Cl)c2ccccc12)c1cn(Cc2ccccc2Cl)c2ccccc12` cannot be ordered by IC50: 5.9 µM for the first, 5.9 to 145 µM for the second.

`Cc1ccc(C(c2c[nH]c3ccc(C(=O)NNS(=O)(=O)c4ccccc4[N+](=O)[O-])cc23)c2c[nH]c3ccc(C(=O)NNS(=O)(=O)c4ccccc4[N+](=O)[O-])cc23)cc1` and `Cc1ccc(C(c2c[nH]c3ccc(C(=O)NNS(=O)(=O)c4cccc([N+](=O)[O-])c4)cc23)c2c[nH]c3ccc(C(=O)NNS(=O)(=O)c4cccc([N+](=O)[O-])c4)cc23)cc1` are the same in IC50: 2.1 µM for the first, 2.1 µM for the second.

`Cc1ccc(C(c2c[nH]c3ccc(C(=O)NNS(=O)(=O)c4cccc(Cl)c4Cl)cc23)c2c[nH]c3ccc(C(=O)NNS(=O)(=O)c4cccc(Cl)c4Cl)cc23)cc1` and `Cc1ccc(C(c2c[nH]c3ccc(C(=O)NNS(=O)(=O)c4ccc(Cl)cc4Cl)cc23)c2c[nH]c3ccc(C(=O)NNS(=O)(=O)c4ccc(Cl)cc4Cl)cc23)cc1` fall in the same range of IC50: 0.1 to 5.1 µM for the first, 0.1 to 5.1 µM for the second.

`O=C1Nc2ccccc2C1(c1cn(Cc2ccccc2)c2ccccc12)c1cn(Cc2ccccc2)c2ccccc12` and `O=C1Nc2ccccc2C1(c1cn(Cc2cccc(F)c2)c2ccccc12)c1cn(Cc2cccc(F)c2)c2ccccc12` fall in the same range of IC50: 5.9 to 145 µM for the first, 5.9 to 145 µM for the second.

`Cc1ccc2c(c1)/C(=N/Nc1nc(-c3ccc(O)cc3)cs1)C(=O)N2Cc1ccccc1F` and `Cc1ccc(-c2csc(N/N=C3\C(=O)N(Cc4ccccc4F)c4ccc(C)cc43)n2)cc1` cannot be ordered by IC50: 5.3 µM for the first, 5.3 to 35 µM for the second.

`Cc1ccc(-c2csc(N/N=C3\C(=O)Nc4c(C)cc(C)cc43)n2)cc1` and `Cc1cc(C)c2c(c1)/C(=N/Nc1nc(-c3ccc(Br)cc3)cs1)C(=O)N2` fall in the same range of IC50: 5.3 to 35 µM for the first, 5.3 to 35 µM for the second.

`COc1cc(Br)ccc1O[C@H](C)Cn1cc(-c2ccccc2)nn1` and `COC(=O)c1cn(C[C@@H](C)Oc2ccc(Br)cc2OC)nn1` fall in the same range of IC50: 14 to 218 µM for the first, 14 to 218 µM for the second.

`Cc1ccc(C(c2c[nH]c3ccc(C(=O)NNS(=O)(=O)c4ccc([N+](=O)[O-])cc4)cc23)c2c[nH]c3ccc(C(=O)NNS(=O)(=O)c4ccc([N+](=O)[O-])cc4)cc23)cc1` and `Cc1ccc(C(c2c[nH]c3ccc(C(=O)NNS(=O)(=O)c4ccc(Br)cc4)cc23)c2c[nH]c3ccc(C(=O)NNS(=O)(=O)c4ccc(Br)cc4)cc23)cc1` cannot be ordered by IC50: 2.1 µM for the first, 0.1 to 5.1 µM for the second.

`O=c1ccc2ccc(OCC(O)CSc3nnc(-c4ccco4)c(-c4ccco4)n3)cc2o1` (stereo not given) and `O=c1oc2ccccc2cc1OCC(O)CSc1nnc(-c2ccco2)c(-c2ccco2)n1` (stereo not given) fall in the same range of IC50: 32 to 148 µM for the first, 32 to 148 µM for the second.

`O=C(CSc1nnc(-c2ccc(F)cc2)c(-c2ccc(F)cc2)n1)Nc1nc(-c2ccccc2)cs1` and `Cc1ccc(-c2csc(NC(=O)CSc3nnc(-c4ccc(F)cc4)c(-c4ccc(F)cc4)n3)n2)cc1` fall in the same range of IC50: 2.8 to 14 µM for the first, 2.8 to 14 µM for the second.

`O=C1Nc2ccc(Cl)cc2/C1=N/Nc1nc(-c2ccc(Br)cc2)cs1` and `Cc1ccc2c(c1)/C(=N/Nc1nc(-c3ccc(O)cc3)cs1)C(=O)N2` fall in the same range of IC50: 5.3 to 35 µM for the first, 5.3 to 35 µM for the second.

`Cc1ccc(C(c2c[nH]c3ccc(C(=O)NNS(=O)(=O)c4cc(Cl)cc(Cl)c4)cc23)c2c[nH]c3ccc(C(=O)NNS(=O)(=O)c4cc(Cl)cc(Cl)c4)cc23)cc1` and `Cc1ccc(C(c2c[nH]c3ccc(C(=O)NNS(=O)(=O)c4ccc(Cl)c(Cl)c4)cc23)c2c[nH]c3ccc(C(=O)NNS(=O)(=O)c4ccc(Cl)c(Cl)c4)cc23)cc1` fall in the same range of IC50: 0.1 to 5.1 µM for the first, 0.1 to 5.1 µM for the second.

`Cn1cc(C2(c3cn(C)c4ccccc34)C(=O)Nc3ccccc32)c2ccccc21` and `CC(C)n1cc(C2(c3cn(C(C)C)c4ccccc34)C(=O)Nc3ccccc32)c2ccccc21` fall in the same range of IC50: 5.9 to 145 µM for the first, 5.9 to 145 µM for the second.

`COc1ccc(-c2ccc(O[C@H](C)Cn3cc(-c4ccc(C(F)(F)F)cc4)nn3)c(OC)c2)cc1` and `COc1cc(-c2ccc([N+](=O)[O-])cc2)ccc1O[C@H](C)Cn1cc(-c2ccc(C(F)(F)F)cc2)nn1` cannot be ordered by IC50: 14 µM for the first, 14 to 218 µM for the second.

`Cc1cc(C)c2c(c1)/C(=N/Nc1nc(-c3ccc(F)cc3)cs1)C(=O)N2` and `O=C1Nc2ccccc2/C1=N/Nc1nc(-c2ccc(F)cc2)cs1` fall in the same range of IC50: 5.3 to 35 µM for the first, 5.3 to 35 µM for the second.

`O=C1Nc2ccccc2C1(c1cn(Cc2ccc(Br)cc2)c2ccccc12)c1cn(Cc2ccc(Br)cc2)c2ccccc12` and `CC(C)Cn1cc(C2(c3cn(CC(C)C)c4ccccc34)C(=O)Nc3ccccc32)c2ccccc21` fall in the same range of IC50: 5.9 to 145 µM for the first, 5.9 to 145 µM for the second.

`O=C(CSc1nnc(-c2ccccc2)c(-c2ccccc2)n1)Nc1nc(-c2ccc(Br)cc2)cs1` and `COc1ccc(-c2csc(NC(=O)CSc3nnc(-c4ccccc4)c(-c4ccccc4)n3)n2)cc1` fall in the same range of IC50: 2.8 to 14 µM for the first, 2.8 to 14 µM for the second.

`CN1C(=O)/C(=N\Nc2nc(-c3ccc(F)cc3)cs2)c2ccccc21` and `COc1ccc(-c2csc(N/N=C3\C(=O)N(Cc4ccccc4F)c4ccc(C)cc43)n2)cc1` fall in the same range of IC50: 5.3 to 35 µM for the first, 5.3 to 35 µM for the second.

`Cc1ccc(C(c2c[nH]c3ccc(C(=O)NNS(=O)(=O)c4cc(Cl)c(Cl)cc4Cl)cc23)c2c[nH]c3ccc(C(=O)NNS(=O)(=O)c4cc(Cl)c(Cl)cc4Cl)cc23)cc1` and `Cc1ccc(C(c2c[nH]c3ccc(C(=O)NNS(=O)(=O)c4cc(Cl)ccc4Cl)cc23)c2c[nH]c3ccc(C(=O)NNS(=O)(=O)c4cc(Cl)ccc4Cl)cc23)cc1` cannot be ordered by IC50: 0.3 to 2.5 µM for the first, 0.1 to 5.1 µM for the second.

`Cc1ccc(C(c2c[nH]c3ccc(C(=O)NNS(=O)(=O)c4ccc([N+](=O)[O-])cc4[N+](=O)[O-])cc23)c2c[nH]c3ccc(C(=O)NNS(=O)(=O)c4ccc([N+](=O)[O-])cc4[N+](=O)[O-])cc23)cc1` and `Cc1ccc(C(c2c[nH]c3ccc(C(=O)NNS(=O)(=O)c4ccc(C)cc4)cc23)c2c[nH]c3ccc(C(=O)NNS(=O)(=O)c4ccc(C)cc4)cc23)cc1` cannot be ordered by IC50: 0.5 µM for the first, 0.1 to 5.1 µM for the second.

`O=C1Nc2ccccc2C1(c1c[nH]c2ccccc12)c1c[nH]c2ccccc12` and `O=c1ccc2ccc(OCC(O)CSc3nnc(-c4ccccc4)c(-c4ccccc4)n3)cc2o1` (stereo not given) cannot be ordered by IC50: 5.9 to 145 µM for the first, 32 to 148 µM for the second.

`O=C(CSc1nnc(-c2ccc(Br)cc2)c(-c2ccc(Br)cc2)n1)Nc1nc(-c2ccc(Br)cc2)cs1` and `COc1ccc(-c2csc(NC(=O)CSc3nnc(-c4ccc(Br)cc4)c(-c4ccc(Br)cc4)n3)n2)cc1` cannot be ordered by IC50: 2.8 to 14 µM for the first, 2.8 µM for the second.

Compound `O=C(CSc1nnc(-c2ccc(Br)cc2)c(-c2ccc(Br)cc2)n1)Nc1nc(-c2ccccc2)cs1` has an IC50 of 2.8 to 14 µM.
